Assay results: ChEMBL document CHEMBL5532655, “Discovery of (R)-4-(8-methoxy-2-methyl-1-(1-phenylethy)-1H-imidazo[4,5-c]quinnolin-7-yl)-3,5-dimethylisoxazole as a potent and selective BET inhibitor for treatment of acute myeloid leukemia (AML) guided by FEP calculation” (Eur J Med Chem, 2024)

How the values were obtained:
[1] = tested on: MV4-11; assay: Induction of apoptosis in human MV4-11 cells assessed as viable cells at 0.625 uM incubated for 24 hrs by annexin V-FITC/PI staining based flow cytometric analysis (reference value: 97%); type: functional; conditions: Homo sapiens, MV4-11, read-out: Activity
[2] = tested on: MV4-11; assay: Antitumor activity against human MV4-11 cells xenografted in BALB/c mouse assessed as tumor growth inhibition at 50 mg/kg administration relative to control; type: functional; conditions: read-out: TGI
[3] = tested on: MV4-11; assay: Induction of apoptosis in human MV4-11 cells assessed as early apoptotic cells at 1.25 uM incubated for 24 hrs by annexin V-FITC/PI staining based flow cytometric analysis (reference value: 0%); type: functional
[4] = tested on: MV4-11; assay: Induction of apoptosis in human MV4-11 cells assessed as late apoptotic cells at 1.25 uM incubated for 24 hrs by annexin V-FITC/PI staining based flow cytometric analysis (reference value: 0.04 %); type: functional
[5] = tested on: MV4-11; assay: Induction of cell cycle arrest in human MV4-11 cells assessed as accumulation of cells at G0/G1 phase at 0.625 uM incubated for 24 hrs by propidium iodide staining flow cytometric analysis (reference value: 37.64 %); type: functional
[6] = tested on: MV4-11; assay: Induction of apoptosis in human MV4-11 cells assessed as upregulation of PARP expression at 500 nM hrs by Western blotting analysis; type: functional, cell-based; conditions: TDE = time-dependent effect
[7] = tested on: MV4-11; assay: Induction of apoptosis in human MV4-11 cells assessed as viable cells at 2.5 uM incubated for 24 hrs by annexin V-FITC/PI staining based flow cytometric analysis (reference value: 97%); type: functional; conditions: Homo sapiens, MV4-11, read-out: Activity
[8] = AUC (0-infinity) in Sprague-Dawley rat at 1 mg/kg,iv administration measured upto 24 hrs by LC-MS/MS analysis; type: ADME, organism-based; conditions: in vivo
[9] = tested on: MV4-11; assay: Induction of apoptosis in human MV4-11 cells assessed as early apoptotic cells at 10 uM incubated for 24 hrs by annexin V-FITC/PI staining based flow cytometric analysis (reference value: 0%); type: functional
[10] = tested on: MV4-11; assay: Induction of apoptosis in human MV4-11 cells assessed as late apoptotic cells at 10 uM incubated for 24 hrs by annexin V-FITC/PI staining based flow cytometric analysis (reference value: 0.04 %); type: functional

For `COc1cc2c(cc1-c1c(C)noc1C)ncc1nc(C)n([C@H](C)c3ccccc3)c12`, which viability at 0.625 µM [1] is on record?
Its viability at 0.625 µM is 68.2%.

And the inhibition in vivo at 50 mg/kg [2]?
Its inhibition in vivo at 50 mg/kg is 70.4%.

And the Activity [3]?
Its Activity is 6.62%.

What about the Activity [4] of the same compound?
Its Activity is 6.32%.

What about the Activity [5] of the same compound?
The Activity was 61.2%.

And the Activity [6]?
The Activity was “Tde”.

What about the viability at 2.5 µM [7] of the same compound?
The viability at 2.5 µM was 81.7%.

And the AUC(0-inf) [8]?
The AUC(0-inf) was 1400 ng·h/mL.

What about the Activity [9] of the same compound?
The Activity was 10.04%.

What about the Activity [10] of the same compound?
The Activity was 11.62%.
